The results in this text go back to article PMC5218480 (PLoS ONE, 2017).

The test deals with MV-4-11 cells. In words: Gene expression microarray analysis (Affymetrix PrimeView) and GSEA. It is filed as cell-based, human. More on the design: RFU PODN (11730768_x_at) / Fold change /veh PODN (11730768_x_at) / RFU LINC00158 (11744669_a_at) / Fold change /veh LINC00158 (11744669_a_at) / RFU DUSP10 (11751237_a_at) / Fold change /veh DUSP10 (11751237_a_at) / RFU ID3 (11757404_x_at) / Fold change /veh ID3 (11757404_x_at) / RFU PLEKHG5 (11737974_s_at) / Fold change /veh PLEKHG5 (11737974_s_at) / RFU LRRC4B (11730491_at) / Fold change /veh LRRC4B (11730491_at) / RFU GIMAP4 (11747438_a_at) / Fold change /veh GIMAP4 (11747438_a_at) / RFU KRT8 (11758183_x_at) / Fold change /veh KRT8 (11758183_x_at) / RFU CNN1 (11734310_a_at) / Fold change /veh CNN1 (11734310_a_at) / RFU VPS37D (11726825_at) / Fold change /veh VPS37D (11726825_at) / RFU C10orf10 (11716522_x_at) / Fold change /veh C10orf10 (11716522_x_at) / RFU KIR2DL2 /// KIR2DL4 /// KIR2DL5A /// KIR2DL5B /// KIR2DS1 /// KIR2DS2 /// KIR2DS3 /// KIR2DS4 /// KIR3DL3 /// KIR3DL3 /// KIR3DS1 (11738374_at) / Fold change /veh KIR2DL2 /// KIR2DL4 /// KIR2DL5A /// KIR2DL5B /// KIR2DS1 /// KIR2DS2 /// KIR2DS3 /// KIR2DS4 /// KIR3DL3 /// KIR3DL3 /// KIR3DS1 (11738374_at) / RFU C1QL1 (11718748_at) / Fold change /veh C1QL1 (11718748_at) / RFU TMPRSS4 (11747572_a_at) / Fold change /veh TMPRSS4 (11747572_a_at) / RFU HAMP (11756126_x_at) / Fold change /veh HAMP (11756126_x_at) / RFU RNFT2 (11725882_a_at) / Fold change /veh RNFT2 (11725882_a_at) / RFU NR4A2 (11747474_a_at) / Fold change /veh NR4A2 (11747474_a_at) / RFU ABCC12 (11746883_a_at) / Fold change /veh ABCC12 (11746883_a_at) / RFU TMEM136 (11760407_x_at) / Fold change /veh TMEM136 (11760407_x_at) / RFU CLDN22 /// WWC2 (11732394_at) / Fold change /veh CLDN22 /// WWC2 (11732394_at) / RFU HLA-DPB1 (11760878_x_at) / Fold change /veh HLA-DPB1 (11760878_x_at) / RFU SPINT1 (11716480_a_at) / Fold change /veh SPINT1 (11716480_a_at) / RFU GAP43 (11754022_s_at) / Fold change /veh GAP43 (11754022_s_at) / RFU A4GNT (11735810_at) / Fold change /veh A4GNT (11735810_at) / RFU PRB3 (11715151_x_at) / Fold change /veh PRB3 (11715151_x_at) / RFU TUBB4B (11761932_at) / Fold change /veh TUBB4B (11761932_at) / RFU CAPN14 (11732068_a_at) / Fold change /veh CAPN14 (11732068_a_at) / RFU TMCC2 (11721928_a_at) / Fold change /veh TMCC2 (11721928_a_at) / RFU IRGQ (11745062_a_at) / Fold change /veh IRGQ (11745062_a_at) / RFU FAM174B (11720279_a_at) / Fold change /veh FAM174B (11720279_a_at) / RFU TMPRSS4 (11748680_a_at) / Fold change /veh TMPRSS4 (11748680_a_at) / RFU FAM212B (11763350_a_at) / Fold change /veh FAM212B (11763350_a_at) / RFU PLEKHG5 (11743358_a_at) / Fold change /veh PLEKHG5 (11743358_a_at) / RFU ZSCAN30 (11745921_a_at) / Fold change /veh ZSCAN30 (11745921_a_at) / RFU CMKLR1 (11741424_a_at) / Fold change /veh CMKLR1 (11741424_a_at) / RFU LOC101060620 /// MAPK8IP1 (11723275_at) / Fold change /veh LOC101060620 /// MAPK8IP1 (11723275_at) / RFU SPTSSB (11747773_x_at) / Fold change /veh SPTSSB (11747773_x_at) / RFU PRSS12 (11739890_at) / Fold change /veh PRSS12 (11739890_at) / RFU BIN1 (11741810_x_at) / Fold change /veh BIN1 (11741810_x_at) / RFU WNT11 (11732464_a_at) / Fold change /veh WNT11 (11732464_a_at) / RFU C10orf10 (11716521_a_at) / Fold change /veh C10orf10 (11716521_a_at) / RFU C5orf56 (11738089_at) / Fold change /veh C5orf56 (11738089_at) / RFU CYB561 (11721691_x_at) / Fold change /veh CYB561 (11721691_x_at) / RFU ANKRD19P (11752326_a_at) / Fold change /veh ANKRD19P (11752326_a_at) / RFU OR2T12 /// OR2T33 /// OR2T8 (11738714_s_at) / Fold change /veh OR2T12 /// OR2T33 /// OR2T8 (11738714_s_at) / RFU VCAN (11748164_a_at) / Fold change /veh VCAN (11748164_a_at) / RFU JSRP1 (11732532_at) / Fold change /veh JSRP1 (11732532_at) / RFU KRTAP10-11 (11738290_x_at) / Fold change /veh KRTAP10-11 (11738290_x_at) / RFU MYO3A (11730013_a_at) / Fold change /veh MYO3A (11730013_a_at) / RFU EBF3 (11725865_a_at) / Fold change /veh EBF3 (11725865_a_at) / RFU CAMK2N1 (11719241_x_at) / Fold change /veh CAMK2N1 (11719241_x_at) / RFU C5orf56 (11738088_a_at) / Fold change /veh C5orf56 (11738088_a_at) / RFU OLFML3 (11715873_a_at) / Fold change /veh OLFML3 (11715873_a_at) / RFU LOC100653217 /// NTM (11731650_a_at) / Fold change /veh LOC100653217 /// NTM (11731650_a_at) / RFU MAPK11 (11762145_a_at) / Fold change /veh MAPK11 (11762145_a_at) / RFU FIZ1 (11724087_x_at) / Fold change /veh FIZ1 (11724087_x_at) / RFU OASL (11726364_x_at) / Fold change /veh OASL (11726364_x_at) / RFU SOX15 (11748057_x_at) / Fold change /veh SOX15 (11748057_x_at) / RFU CD79A (11719716_a_at) / Fold change /veh CD79A (11719716_a_at) / RFU HIST1H1D (11736915_at) / Fold change /veh HIST1H1D (11736915_at) / RFU CASKIN2 (11723855_a_at) / Fold change /veh CASKIN2 (11723855_a_at) / RFU LOC730098 (11760151_x_at) / Fold change /veh LOC730098 (11760151_x_at) / RFU OR4N2 (11742367_at) / Fold change /veh OR4N2 (11742367_at) / RFU PRRT2 (11749266_a_at) / Fold change /veh PRRT2 (11749266_a_at) / RFU SNX32 (11753110_a_at) / Fold change /veh SNX32 (11753110_a_at) / RFU CDHR5 (11726645_a_at) / Fold change /veh CDHR5 (11726645_a_at) / RFU RCAN1 (11760418_a_at) / Fold change /veh RCAN1 (11760418_a_at) / RFU FAM167A (11723789_a_at) / Fold change /veh FAM167A (11723789_a_at) / RFU FAM26E (11764081_at) / Fold change /veh FAM26E (11764081_at) / RFU ISYNA1 (11749810_s_at) / Fold change /veh ISYNA1 (11749810_s_at) / RFU ACY1 (11761880_at) / Fold change /veh ACY1 (11761880_at) / RFU 11764098_at / Fold change /veh 11764098_at / RFU SAMD14 (11745864_x_at) / Fold change /veh SAMD14 (11745864_x_at) / RFU NPB (11741838_a_at) / Fold change /veh NPB (11741838_a_at) / RFU TMPRSS6 (11731388_a_at) / Fold change /veh TMPRSS6 (11731388_a_at) / RFU KRTAP10-2 (11738614_at) / Fold change /veh KRTAP10-2 (11738614_at) / RFU ARHGAP8 /// PRR5-ARHGAP8 (11727945_x_at) / Fold change /veh ARHGAP8 /// PRR5-ARHGAP8 (11727945_x_at) / RFU KRTAP5-7 /// NADSYN1 (11734609_at) / Fold change /veh KRTAP5-7 /// NADSYN1 (11734609_at) / RFU RASL12 (11751679_a_at) / Fold change /veh RASL12 (11751679_a_at) / RFU CDKN2B (11736163_a_at) / Fold change /veh CDKN2B (11736163_a_at) / RFU PRF1 (11729649_at) / Fold change /veh PRF1 (11729649_at) / RFU, ZNF638 /// ZNF638-IT1 / Fold change vs veh, ZNF638 /// ZNF638-IT1 / RFU, PANK3 / Fold change vs veh, PANK3 / RFU, SH3YL1 / Fold change vs veh, SH3YL1 / RFU, ZEB2 / Fold change vs veh, ZEB2 / RFU, NRIP1 / Fold change vs veh, NRIP1 / RFU, PTTG1IP / Fold change vs veh, PTTG1IP / RFU, CAPN2 / Fold change vs veh, CAPN2 / RFU, MED14 / Fold change vs veh, MED14 / RFU, SNORA58 / Fold change vs veh, SNORA58 / RFU, C1orf63 / Fold change vs veh, C1orf63 / RFU, LRRFIP1 / Fold change vs veh, LRRFIP1 / RFU, NDUFAF7 / Fold change vs veh, NDUFAF7 / RFU, SLC12A2 / Fold change vs veh, SLC12A2 / RFU, IBTK / Fold change vs veh, IBTK / RFU, ESF1 / Fold change vs veh, ESF1 / Fold change vs veh, TMEM50B / RFU, TAOK1 / Fold change vs veh, TAOK1 / RFU, ACBD3 / Fold change vs veh, ACBD3 / RFU, TMA16 / Fold change vs veh, TMA16 / RFU, RWDD3 / Fold change vs veh, RWDD3 / RFU, BCAT1 / Fold change vs veh, BCAT1 / RFU, EDEM3 / Fold change vs veh, EDEM3 / RFU, TMEM33 / Fold change vs veh, TMEM33 / RFU, WDR75 / Fold change vs veh, WDR75 / RFU, AHCTF1 / Fold change vs veh, AHCTF1 / RFU, TFRC / Fold change vs veh, TFRC / RFU, ZDHHC17 / Fold change vs veh, ZDHHC17 / RFU, NOM1 / Fold change vs veh, NOM1 / RFU, ARL8B / Fold change vs veh, ARL8B / RFU, ZBTB11 / Fold change vs veh, ZBTB11 / RFU, TAMM41 / Fold change vs veh, TAMM41 / RFU, KIAA1704 /// LOC100996395 / Fold change vs veh, KIAA1704 /// LOC100996395 / RFU, ING1 / Fold change vs veh, ING1 / RFU, TRMT61B / Fold change vs veh, TRMT61B / RFU, FUBP3 / Fold change vs veh, FUBP3 / RFU, TP53 / Fold change vs veh, TP53 / RFU, TNKS2 / Fold change vs veh, TNKS2 / RFU, ZFP14 / Fold change vs veh, ZFP14 / RFU, ACTR2 / Fold change vs veh, ACTR2 / RFU, PPP3R1 / Fold change vs veh, PPP3R1 / RFU, PIK3R1 / Fold change vs veh, PIK3R1 / RFU, HNRNPA1 / Fold change vs veh, HNRNPA1 / RFU, RNF170 / Fold change vs veh, RNF170 / RFU, ZNF28 / Fold change vs veh, ZNF28 / RFU, RNGTT / Fold change vs veh, RNGTT / RFU, OGT / Fold change vs veh, OGT / RFU, BRD1 / Fold change vs veh, BRD1 / RFU, MARS / Fold change vs veh, MARS / RFU, ZNF655 / Fold change vs veh, ZNF655 / RFU, FAHD1 / Fold change vs veh, FAHD1 / RFU, BDP1 / Fold change vs veh, BDP1 / RFU, LRRCC1 / Fold change vs veh, LRRCC1 / RFU, ARID1A / Fold change vs veh, ARID1A / RFU, ZNF146 / Fold change vs veh, ZNF146 / RFU, ZNF330 / Fold change vs veh, ZNF330 / RFU, GPN3 / Fold change vs veh, GPN3 / RFU, C9orf123 / Fold change vs veh, C9orf123 / RFU, N4BP2L2 / Fold change vs veh, N4BP2L2 / RFU, ARFIP1 / Fold change vs veh, ARFIP1 / RFU, FAM179B / Fold change vs veh, FAM179B / RFU, BCL10 / Fold change vs veh, BCL10 / RFU, UHRF1BP1L / Fold change vs veh, UHRF1BP1L / RFU, BET1 / Fold change vs veh, BET1 / RFU, CNOT2 / Fold change vs veh, CNOT2 / RFU, ZNF268 / Fold change vs veh, ZNF268 / Fold change vs veh, ZNF507 / RFU, DGCR2 / Fold change vs veh, DGCR2 / RFU, WDSUB1 / Fold change vs veh, WDSUB1 / Fold change vs veh, HSP90B1 /// MIR3652 / RFU, ADSS / Fold change vs veh, ADSS / RFU, GK / Fold change vs veh, GK / RFU, ZNF148 / Fold change vs veh, ZNF148 / RFU, TAF9 / Fold change vs veh, TAF9 / RFU, SLC1A5 / Fold change vs veh, SLC1A5 / RFU, SLMO2 / Fold change vs veh, SLMO2 / RFU, ABCC4 / Fold change vs veh, ABCC4 / RFU, LOC101060439 /// RAP1B / Fold change vs veh, LOC101060439 /// RAP1B / RFU, RFX7 / Fold change vs veh, RFX7 / RFU, GTPBP10 / Fold change vs veh, GTPBP10 / RFU, CNEP1R1 / Fold change vs veh, CNEP1R1 / RFU, BIVM-ERCC5 /// ERCC5 / Fold change vs veh, BIVM-ERCC5 /// ERCC5 / RFU, ILF3 / Fold change vs veh, ILF3 / RFU 11762660_at / Fold change /veh 11762660_at / RFU VCAN (11757783_s_at) / Fold change /veh VCAN (11757783_s_at) / RFU DDX43 (11728927_at) / Fold change /veh DDX43 (11728927_at) / RFU KRT8 (11758188_x_at) / Fold change /veh KRT8 (11758188_x_at) / RFU NKD1 (11759106_at) / Fold change /veh NKD1 (11759106_at) / RFU SRD5A1 (11742802_a_at) / Fold change /veh SRD5A1 (11742802_a_at) / RFU TPSAB1 /// TPSB2 (11721975_s_at) / Fold change /veh TPSAB1 /// TPSB2 (11721975_s_at) / RFU GSTM3 (11746129_a_at) / Fold change /veh GSTM3 (11746129_a_at) / RFU IL23R (11737362_x_at) / Fold change /veh IL23R (11737362_x_at) / RFU TMEM51 (11727254_a_at) / Fold change /veh TMEM51 (11727254_a_at) / RFU PIWIL2 (11732686_x_at) / Fold change /veh PIWIL2 (11732686_x_at) / RFU ORM1 (11744905_x_at) / Fold change /veh ORM1 (11744905_x_at) / RFU CCDC152 (11743942_at) / Fold change /veh CCDC152 (11743942_at) / RFU ECM1 (11717891_a_at) / Fold change /veh ECM1 (11717891_a_at) / RFU IL23R (11748794_a_at) / Fold change /veh IL23R (11748794_a_at) / RFU TNFAIP8L3 (11732012_x_at) / Fold change /veh TNFAIP8L3 (11732012_x_at) / RFU MBOAT4 (11741988_at) / Fold change /veh MBOAT4 (11741988_at) / RFU 11764193_at / Fold change /veh 11764193_at / RFU TMEM53 (11763286_at) / Fold change /veh TMEM53 (11763286_at) / RFU MAGEB2 (11727129_at) / Fold change /veh MAGEB2 (11727129_at) / RFU TMEM200A (11744735_a_at) / Fold change /veh TMEM200A (11744735_a_at) / RFU CCDC152 (11751479_a_at) / Fold change /veh CCDC152 (11751479_a_at) / RFU FAM211A (11726209_a_at) / Fold change /veh FAM211A (11726209_a_at) / RFU RGS16 (11746705_a_at) / Fold change /veh RGS16 (11746705_a_at) / RFU VCAN (11755009_s_at) / Fold change /veh VCAN (11755009_s_at) / RFU RHOB (11743442_s_at) / Fold change /veh RHOB (11743442_s_at) / RFU RGS16 (11720943_a_at) / Fold change /veh RGS16 (11720943_a_at) / RFU RGS16 (11720944_at) / Fold change /veh RGS16 (11720944_at) / RFU, VPS4B / Fold change vs veh, VPS4B / RFU, CREB1 / Fold change vs veh, CREB1 / RFU, DNAJC13 / Fold change vs veh, DNAJC13 / RFU, GNAQ / Fold change vs veh, GNAQ / RFU, CDK5R1 / Fold change vs veh, CDK5R1 / RFU, ZRANB3 / Fold change vs veh, ZRANB3 / RFU, CUL4A / Fold change vs veh, CUL4A / RFU, CCNY / Fold change vs veh, CCNY / RFU, UFL1 / Fold change vs veh, UFL1 / RFU, COG3 / Fold change vs veh, COG3 / RFU, DIAPH2 / Fold change vs veh, DIAPH2 / RFU, SKA2 / Fold change vs veh, SKA2 / RFU, AFF3 / Fold change vs veh, AFF3 / RFU, LMF1 / Fold change vs veh, LMF1 / RFU, IPO11 / Fold change vs veh, IPO11 / RFU, DFFB / Fold change vs veh, DFFB / RFU, FOXP1 / Fold change vs veh, FOXP1 / RFU, CARD8 / Fold change vs veh, CARD8 / RFU, STRN3 / Fold change vs veh, STRN3 / RFU, ADK / Fold change vs veh, ADK / RFU, RASSF2 / Fold change vs veh, RASSF2 / RFU, WIPF1 / Fold change vs veh, WIPF1 / RFU, LARP1B / Fold change vs veh, LARP1B / RFU, RASA1 / Fold change vs veh, RASA1 / RFU, RB1 / Fold change vs veh, RB1 / RFU, PPFIA1 / Fold change vs veh, PPFIA1 / RFU, MAT2A / Fold change vs veh, MAT2A / RFU, CCT5 / Fold change vs veh, CCT5 / RFU, WDR92 / Fold change vs veh, WDR92 / RFU, CUX1 / Fold change vs veh, CUX1 / RFU, TTC7A / Fold change vs veh, TTC7A / RFU, TMEM135 / Fold change vs veh, TMEM135 / RFU, DEPTOR / Fold change vs veh, DEPTOR / RFU, CPM / Fold change vs veh, CPM / RFU, DNAJB6 / Fold change vs veh, DNAJB6 / RFU, CACNA2D3 / Fold change vs veh, CACNA2D3 / RFU, DTX4 / Fold change vs veh, DTX4 / RFU, TFCP2 / Fold change vs veh, TFCP2 / RFU, GMCL1 /// GMCL1P1 / Fold change vs veh, GMCL1 /// GMCL1P1 / RFU, AEBP2 / Fold change vs veh, AEBP2 / RFU, SNHG1 /// SNORD22 /// SNORD25 /// SNORD26 /// SNORD27 /// SNORD28 /// SNORD29 /// SNORD31 / Fold change vs veh, SNHG1 /// SNORD22 /// SNORD25 /// SNORD26 /// SNORD27 /// SNORD28 /// SNORD29 /// SNORD31 / Fold change (Aza/veh), C12orf56 (ProbeSet 11735607_a_at) / Fold change (ACY-1035/veh), C12orf56 (ProbeSet 11735607_a_at) / Fold change (Aza/veh), FGFR1OP (ProbeSet 11751329_s_at) / Fold change (ACY-1035/veh), FGFR1OP (ProbeSet 11751329_s_at) / Fold change (Aza/veh), VPS36 (ProbeSet 11739960_a_at) / Fold change (ACY-1035/veh), VPS36 (ProbeSet 11739960_a_at) / RFU SYPL1 (11715823_x_at) / Fold change /veh SYPL1 (11715823_x_at) / RFU IGFBP7 (11715501_s_at) / Fold change /veh IGFBP7 (11715501_s_at) / RFU REEP3 (11722064_at) / Fold change /veh REEP3 (11722064_at) / RFU IGLL1 (11728026_x_at) / Fold change /veh IGLL1 (11728026_x_at): dose or concentration left out as unconfirmed. The conditions noted are these: MV-4-11 cells, 48 hours.

For the compound `Nc1ncn([C@@H]2O[C@H](CO)[C@@H](O)[C@H]2O)c(=O)n1` [azacitidine], the “Fold change /veh PLEKHG5 (11737974_s_at)” value was determined as 1.17.
